Measured values from patent US12649733B2, “3,6-diamino-pyridazin-3-yl derivatives, pharmaceutical compositions containing them and their uses as pro-apoptotic agents” (LES LABORATOIRES SERVIER, priority 2019, dated 2026).

Tests used:
[1] = system: H146 cells; assay: H146 cell viability, MTT assay; type: cell-based; conditions: Homo sapiens, NCI-H146, 48 h, 48 h exposure
How it was run: (§1)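 Viability read by MTT reduction (OD 540 nm after overnight SDS/HCl lysis) after 48 h compound treatment of cells in RPMI 1640/10% FBS. Triplicates at nine concentrations, 3.16-fold apart; four-parameter curve fitting yields IC50.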

[2] = target: BCLXL (Homo sapiens, UniProt Q07817, V10N/V9A); assay: Fluorescence polarisation assay (PUMA-based probe displacement); type: binding; note: 20 nM protein, 10 nM fluorescent probe
[3] = system: MOLT-4 cells; assay: MOLT-4 cell viability, MTT assay; type: cell-based; conditions: Homo sapiens, MOLT-4, 48 h, 48 h exposure
How it was run: as §1

BCLXL, sequence (Q07817 with tags, fused parts or gaps V9A/V10N): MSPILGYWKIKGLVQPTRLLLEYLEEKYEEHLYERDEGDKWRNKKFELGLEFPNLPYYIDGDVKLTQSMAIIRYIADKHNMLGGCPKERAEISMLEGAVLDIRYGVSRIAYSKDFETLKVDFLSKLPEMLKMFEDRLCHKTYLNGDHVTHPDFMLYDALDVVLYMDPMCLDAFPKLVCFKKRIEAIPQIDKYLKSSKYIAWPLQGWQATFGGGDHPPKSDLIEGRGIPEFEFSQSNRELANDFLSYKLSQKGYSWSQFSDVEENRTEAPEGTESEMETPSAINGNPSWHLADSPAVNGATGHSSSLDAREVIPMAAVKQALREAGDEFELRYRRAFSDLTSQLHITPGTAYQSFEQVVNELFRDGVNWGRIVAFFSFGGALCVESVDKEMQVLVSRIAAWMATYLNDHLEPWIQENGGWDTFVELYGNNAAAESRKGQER

Row | SMILES | IC50 [1] [µM] | Ki [2] [µM] | IC50 [3] [µM]
1 | Cc1cc(N(C)c2nc(C(=O)O)c(N3CC[C@@H](OCc4ccccc4)C3)s2)nnc1Nc1nc2ccccc2s1 [Example 71, 2-({6-[(1,3-Benzothiazol-2-yl)amino]-5-methylpyridazin-3-yl}(methyl)amino)-5-[(3R)-3-(benzyloxy)pyrrolidin-1-yl]-1,3-thiazole-4-carboxylic acid] | > 15 | > 10 | > 15
2 | Cc1cc(N(C)c2nc(C(=O)O)c(N3CCC(OCc4ccccc4)CC3)s2)nnc1Nc1nc2ccccc2s1 [Example 75, 2-({6-[(1,3-Benzothiazol-2-yl)amino]-5-methylpyridazin-3-yl}(methyl)amino)-5-[4-(benzyloxy)piperidin-1-yl]-1,3-thiazole-4-carboxylic acid] | > 15 | < 0.001 | 2.92
3 | Cc1cc(N(C)c2nc(C(=O)O)c(N3CC[C@H](Oc4ccccc4)C3)s2)nnc1Nc1nc2ccccc2s1 [Example 77, 2-({6-[(1,3-Benzothiazol-2-yl)amino]-5-methylpyridazin-3-yl}(methyl)amino)-5-[(3S)-3-phenoxypyrrolidin-1-yl]-1,3-thiazole-4-carboxylic acid] | ≥ 14.9 | 0.11 | 6.59
4 | Cc1cc(N(C)c2nc(C(=O)O)c(C3CCC3)s2)nnc1Nc1nc2ccccc2s1 [Example 78, 2-({6-[(1,3-Benzothiazol-2-yl)amino]-5-methylpyridazin-3-yl}(methyl)amino)-5-cyclobutyl-1,3-thiazole-4-carboxylic acid] | > 15 | 0.11 | > 15
5 | Cc1cc(N(C)c2nc(C(=O)O)c(CCCOc3ccc(C#CCN(C)C(=O)OC(C)(C)C)cc3F)s2)nnc1Nc1nc2ccccc2s1 [Example 82, 2-({6-[(1,3-Benzothiazol-2-yl)amino]-5-methylpyridazin-3-yl}(methyl)amino)-5-{3-[4-(3-{[(tert-butoxy)carbonyl](methyl)amino}prop-1-yn-1-yl)-2-fluorophenoxy]propyl}-1,3-thiazole-4-carboxylic acid] | 0.0988 | < 0.001 | 0.0683
6 | Cc1cc(N(C)c2nc(C(=O)O)c(C3CCNCC3)s2)nnc1Nc1nc2ccccc2s1 [Example 83, 2-({6-[(1,3-Benzothiazol-2-yl)amino]-5-methylpyridazin-3-yl}(methyl)amino)-5-(piperidin-4-yl)-1,3-thiazole-4-carboxylic acid] | > 15 | 0.32 | > 15
7 | Cc1cc(N(C)c2nc(C(=O)O)c(C3CCN(C(=O)OC(C)(C)C)CC3)s2)nnc1Nc1nc2ccccc2s1 [Example 84, 2-({6-[(1,3-Benzothiazol-2-yl)amino]-5-methylpyridazin-3-yl}(methyl)amino)-5-{1-[(tert-butoxy)carbonyl]piperidin-4-yl}-1,3-thiazole-4-carboxylic acid] | > 15 | 0.049 | 7.57
8 | Cc1cc(N(C)c2nc(C(=O)O)c(C3CCN(Cc4ccccc4)CC3)s2)nnc1Nc1nc2ccccc2s1 [Example 86, 2-({6-[(1,3-Benzothiazol-2-yl)amino]-5-methylpyridazin-3-yl}(methyl)amino)-5-(1-benzylpiperidin-4-yl)-1,3-thiazole-4-carboxylic acid] | ≥ 12.4 | 0.16 | 14.6
9 | Cc1cc(N(C)c2nc(C(=O)O)c(C3CCN(CC(C)C)CC3)s2)nnc1Nc1nc2ccccc2s1 [Example 87, 2-({6-[(1,3-Benzothiazol-2-yl)amino]-5-methylpyridazin-3-yl}(methyl)amino)-5-[1-(2-methylpropyl)piperidin-4-yl]-1,3-thiazole-4-carboxylic acid] | > 15 | 0.53 | > 15
10 | Cc1cc(N(C)c2nc(C(=O)O)c(N3CCC(COc4ccccc4)CC3)s2)nnc1Nc1nc2ccccc2s1 [Example 88, 2-({6-[(1,3-Benzothiazol-2-yl)amino]-5-methylpyridazin-3-yl}(methyl)amino)-5-[4-(phenoxymethyl)piperidin-1-yl]-1,3-thiazole-4-carboxylic acid] | 11 | 0.0028 | 1.61
